Where a name gives a salt, the structure may show the parent alone. Read-outs that look alike come from different tables or passages of the source. One block for each compound: values may come before it.
Target: T1, 5-HT2A receptor (Homo sapiens, UniProt P28223)
T1 construct: expressed in transfected cells; host or cells: NIH3T3 cells, pSI expression vector
Experiment: R-SAT functional receptor assay
Type: cell-based
Details: for Emax: 120 h
Method: The functional receptor assay, Receptor Selection and Amplification Technology (R-SAT), was used (with minor modifications from that previously described U.S. Pat. No. 5,707,798) to screen compounds for efficacy at the 5-HT2A receptor. Briefly, NIH3T3 cells were grown in 96 well tissue culture plates to 70-80% confluence. Cells were transfected for 12-16 hours with plasmid DNAs using superfect (Qiagen Inc.) as per manufacture's protocols. R-SAT's were generally performed with 50 ng/well of receptor and 20 ng/well of Beta-galactosidase plasmid DNA. All receptor and G-protein constructs used were in the pSI mammalian expression vector (Promega Inc) as described in U.S. Pat. No. 5,707,798. The 5HT2A receptor gene was amplified by nested PCR from brain cDNA using the oligodeoxynucleotides based on the published sequence (see Saltzman et. al. Biochem. Biophys. Res. Comm. 181:1469-78 (1991)). Large-scale transfections, cells were transfected for 12-16 hours, then trypsinized and frozen in DMSO. Frozen cells were later thawed, plated at 10,000-40,000 cells per well of a 96 well plate that contained drug. With both methods, cells were then grown in a humidified atmosphere with 5% ambient CO2 for five days. Media was then removed from the plates and marker gene activity was measured by the addition of the beta-galactosidase substrate ONPG (in PBS with 5% NP-40). The resulting colorimetric reaction was measured in a spectrophotometric plate reader (Titertek Inc.)at […]. All data were analyzed using the computer program XLFit (IDBSm). Efficacy is the percent maximal repression compared to repression by a control compound (ritanserin in the case of 5HT2A). pIC50 is the negative of the log(IC50), where IC50 is the calculated concentration in Molar that produces 50% maximal repression.
Briefly, the 5-HT2A receptor, and the alpha subunit of the guanine nucleotide binding protein Gq were transiently transfected into NIH3T3 cells and assayed using the functional receptor assay, Receptor Selection and Amplification Technology (R-SAT) essentially as disclosed in U.S. Pat. No. 5,707,798. Each compound was screened at seven serially diluted concentrations in triplicate. Data were analyzed using least squares fit analysis with GraphPad Prism (San Diego, Calif.), and are reported normalized to percent response.
R-SAT assays (as described in Example 42) were carried out with cells transfected with receptors (listed below) to determine the receptor selectivity profile for compound 26HCH16D. 5HT2A inverse agonist data (IC50 nM; % efficacy) were derived from detailed dose response curves (7 points in triplicate).
(§1) The functional receptor assay, Receptor Selection and Amplification Technology (R-SAT), was used (with minor modifications from that previously described U.S. Pat. No. 5,707,798) to screen compounds for efficacy at the 5-HT2A receptor. The RSAT assay was conducted as described herein.
as §1, with “5,707,798, which is incorporated herein by reference in its entirety)” for “5,707,798)”

[1] = compared to ritanserin, read-out: 5HT2A % inhibition
[2] = pIC50 (average), inverse agonist
[3] = percent maximal repression compared to ritanserin
[4] = read-out: Percent Efficacy, compared to ritanserin
[5] = Table 3, read-out: pIC50 (converted)
[6] = inverse agonist, read-out: pIC50 (average) (converted)
[7] = Table 6, read-out: 5HT2A pIC50 (converted)

T1 sequence (P28223 whole entry): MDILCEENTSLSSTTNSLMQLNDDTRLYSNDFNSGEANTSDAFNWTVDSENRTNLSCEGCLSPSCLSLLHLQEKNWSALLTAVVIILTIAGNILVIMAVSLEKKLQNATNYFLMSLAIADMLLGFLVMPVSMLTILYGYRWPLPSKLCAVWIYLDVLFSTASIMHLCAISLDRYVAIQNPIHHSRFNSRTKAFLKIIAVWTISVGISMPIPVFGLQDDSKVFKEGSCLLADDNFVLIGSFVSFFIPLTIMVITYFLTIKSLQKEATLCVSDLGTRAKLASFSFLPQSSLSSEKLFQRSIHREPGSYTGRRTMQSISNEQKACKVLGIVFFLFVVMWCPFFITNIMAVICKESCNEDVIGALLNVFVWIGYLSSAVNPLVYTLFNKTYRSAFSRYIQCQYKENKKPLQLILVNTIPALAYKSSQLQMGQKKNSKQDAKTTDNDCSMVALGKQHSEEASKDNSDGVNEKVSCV

Structure (SMILES): CC(C)COc1ccc(CN2C(=O)OC3(CCN(C)CC3)[C@@H]2Cc2ccc(F)cc2)cc1 (single isomer, unassigned) [Example 78NLS59, 4-(4-fluorobenzyl)-3-(4-isobutoxybenzyl)-8-methyl-1-oxa-3,8-diaza-spiro[4.5]decan-2-one, hydrochloride]
- Emax (read-out: 5HT2A % inhibition, compared to ritanserin): 98%
- enantiomer activity at the 5-HT2A receptor (in words): eutomer

Structure (SMILES): CC(C)COc1ccc(CN2C(=O)OC3(CCN(C)CC3)C2Cc2ccc(F)cc2)cc1 (single isomer, unassigned) [Example 78NLS62, 4-(4-fluorobenzyl)-3-(4-isobutoxybenzyl)-8-methyl-1-oxa-3,8-diaza-spiro[4.5]decan-2-one, hydrochloride]
- Emax [1]: 89%

- Percent Efficacy: 83%
Structure (SMILES): COc1ccc(CC(=O)N(Cc2ccc(C)cc2)C2CCN(CC3CCCCC3)CC2)cc1 [Example 6HCH79-6, N-(1-(Cyclohexylmethyl)piperidin-4-yl)-N-((4-methylphenyl)methyl)-4-methoxy phenylacetamide]

Structure (SMILES): COc1ccc(CC(=O)N(Cc2ccc(C)cc2)C2CCN(Cc3ccccc3)CC2)cc1 [Example 26HCH17, N-((4-Methylphenyl)methyl)-N-(1-(phenylmethyl)piperidin-4-yl)-4-methoxyphenylacetamide hydrochloride]
- Emax (read-out: Percent Efficacy): 94%
- IC50 (pIC50, Table 3): 5.01 nM

Structure (SMILES): COc1ccc(CC(=O)N(Cc2ccc(C)cc2)C2CCN(Cc3ccccc3)C2)cc1 (stereo not drawn) [Example 26HCH52, N-((4-Methylphenyl)methyl)-N-(1-(phenylmethyl)pyrrolidin-3-yl)-4-methoxyphenylacetamide]
- IC50 [2]: 49 nM
- Efficacy (average) [3]: 98

- Emax [4]: 103%
- IC50 [5]: 6.31 nM
Structure (SMILES): Cc1ccc(CN(C(=O)NCc2ccccc2)C2CCNCC2)cc1 [Example 26HCH65, N-((4-Methylphenyl)methyl)-N-(piperidin-4-yl)-N′-phenylmethylcarbamide]

Structure (SMILES): Cc1ccc(CN(C(=O)NCc2ccccc2)C2CCN(Cc3ccccc3Br)CC2)cc1 [Example 26HCH66-03, N-(1-((2-Bromophenyl)methyl)piperidin-4-yl)-N-((4-methylphenyl)methyl)-N′-phenylmethylcarbamide]
- IC50 [2]: 38 nM
- Efficacy (average) [3]: 76

Structure (SMILES): CCc1ccc(CN2CCC(N(Cc3ccc(C)cc3)C(=O)NCc3ccccc3)CC2)s1 [Example 26HCH66-05, N-(1-((5-Ethylthien-2-yl)methyl)piperidin-4-yl)-N-((4-methylphenyl)methyl)-N′-phenylmethylcarbamide]
- Emax (read-out: Percent Efficacy): 126%
- IC50 [2]: 28.2 nM
- IC50 (pIC50, Table 3): 7.94 nM
- Efficacy (average) [3]: 109

- Emax [4]: 124%
- IC50 [5]: 12.6 nM
Structure (SMILES): COc1ccc(CC(=O)N(Cc2ccc(C)cc2)C2CCNCC2)cc1 [Example 26HCH71B, N-((4-Methylphenyl)methyl)-N-(piperidin-4-yl)-4-methoxyphenylacetamide]

- Emax [4]: 94%
- IC50 [5]: 6.31 nM
Structure (SMILES): COc1ccc(CC(=O)N(Cc2ccc(C)cc2)C2CCN(CCC(C)(C)C)CC2)cc1 [Example 26HCH79-5, N-(1-(3,3-Dimethylbutyl)piperidin-4-yl)-N-((4-methylphenyl)methyl)-4-methoxyphenylacetamide]

Structure (SMILES): COc1ccc(CC(=O)N(Cc2ccc(C)cc2)C2CCN(Cc3ccccc3O)CC2)cc1 [Example 26HCH79-10, N-(1-((2-Hydroxyphenyl)methyl)piperidin-4-yl)-N-((4-methylphenyl)methyl)-4-methoxyphenylacetamide]
- Emax (read-out: Percent Efficacy): 102%
- IC50 (pIC50, Table 3): 15.8 nM

- Efficacy (average): 87
- IC50 [6]: 20 nM
Structure (SMILES): COc1ccc(CC(=O)N(Cc2ccc(F)cc2)C2CCNCC2)cc1 [Example 26HCH80-7, N-((4-Fluorophenyl)methyl)-N-(piperidin-4-yl)-4-methoxyphenylacetamide]

- Efficacy (average): 91
- IC50 [6]: 61.7 nM
Structure (SMILES): COc1ccc(CC(=O)N(Cc2cccc(Br)c2)C2CCNCC2)cc1 [Example 26HCH80-10, N-((3-Bromophenyl)methyl)-N-(piperidin-4-yl)-4-methoxyphenylacetamide]

Structure (SMILES): CC(C)COc1ccc(CN2C(=O)OC3(CCN(CC4CC4)CC3)C2Cc2ccc(F)cc2)cc1 (stereo not drawn) [Example 38-PH16-HCl, 8-Cyclopropylmethyl-4-(4-fluorobenzyl)-3-(4-isobutoxybenzyl)-1-oxa-3,8-diaza-spiro[4.5]decan-2-one, hydrochloride]
- Emax [1]: 95%
- IC50 [7]: 7.94 nM

Structure (SMILES): CC(C)COc1ccc(CN2C(=O)OC3(CCN(CCN4CCNC4=O)CC3)C2Cc2ccc(F)cc2)cc1 (stereo not drawn) [Example 38-PH17-HCl, 4-(4-Fluorobenzyl)-3-(4-isobutoxybenzyl)-8-[2-(2-oxo-imidazolidin-1-yl)-ethyl]-1-oxa-3,8-diaza-spiro[4.5]decan-2-one, hydrochloride]
- Emax [1]: 84%
- IC50 [7]: 1.58 nM

Structure (SMILES): CCN1CCC2(CC1)OC(=O)N(Cc1ccc(OCC(C)C)cc1)C2Cc1ccc(F)cc1 (stereo not drawn) [Example 38-PH20, 4-(4-Fluorobenzyl)-3-(4-isobutoxybenzyl)-8-ethyl-1-oxa-3,8-diaza-spiro[4.5]decan-2-one, hydrochloride]
- Emax [1]: 100%
- IC50 [7]: 0.501 nM

- Percent Efficacy: 108%
Structure (SMILES): COc1ccc(CC(=O)N(Cc2ccc(C)cc2)C2CCN(CC3CCCCC3)CC2)cc1 [Example 42ELH45, 2-(4-Methoxyphenyl)-N-(4-methylbenzyl)-N-(1-cyclohexylmethylpiperidin-4-yl)acetamide]

- Emax [4]: 109%
- IC50 [5]: 5.01 nM
Structure (SMILES): COc1ccc(CC(=O)N(Cc2ccc(C)cc2)C2CCN(C3CCCC3)CC2)cc1 [Example 42ELH75, 2-(4-Methoxyphenyl)-N-(4-methylbenzyl)-N-(1-cyclopentylpiperidin-4-yl)acetamide]

- Emax [4]: 110%
- IC50 [5]: 3.16 nM
Structure (SMILES): COc1ccc(CC(=O)N(Cc2ccc(C)cc2)C2CCN(C(C)C)CC2)cc1 [Example 42ELH79, 2-(4-Methoxyphenyl)-N-(4-methylbenzyl)-N-(1-isopropylpiperidin-4-yl)acetamide]

- Emax [4]: 122%
- IC50 [5]: 3.16 nM
Structure (SMILES): CCN1CCC(N(Cc2ccc(C)cc2)C(=O)Cc2ccc(OC)cc2)CC1 [Example 42ELH80, 2-(4-Methoxyphenyl)-N-(4-methylbenzyl)-N-(1-ethylpiperidin-4-yl)acetamide]

- Percent Efficacy (compared to ritanserin): 118%
Structure (SMILES): CCN1CCC(N(Cc2ccc(Cl)cc2)C(=O)Cc2ccc(OC)cc2)CC1 [Example 42ELH85, 2-(4-Methoxyphenyl)-N-(4-chlorbenzyl)-N-(1-ethylpiperidin-4-yl)acetamide]

- Percent Efficacy (compared to ritanserin): 108%
Structure (SMILES): COc1ccc(CC(=O)N(Cc2ccc(Cl)cc2)C2CCN(C3CCCC3)CC2)cc1 [Example 42ELH91, 2-(4-Methoxyphenyl)-N-(4-chlorbenzyl)-N-(1-cyclopentylpiperidin-4-yl)acetamide]

- Emax [4]: 120%
- IC50 [5]: 7.94 nM
Structure (SMILES): Cc1ccc(CN(C(=O)Cc2ccc(Cl)cc2)C2CCN(C(C)C)CC2)cc1 [Example 47AKU-7, 2-(4-Chlorophenyl)-N-(4-methylbenzyl)-N-(1-isopropylpiperidin-4-yl)-acetamide]

- Emax [4]: 113%
- IC50 [5]: 7.94 nM
Structure (SMILES): Cc1ccc(CN(C(=O)Cc2ccc(Cl)cc2)C2CCN(C)CC2)cc1 [Example 47AKU-8, 2-(4-Chlorophenyl)-N-(4-methylbenzyl)-N-(1-methylpiperidin-4-yl)-acetamide]

- Emax [4]: 112%
- IC50 [5]: 7.94 nM
Structure (SMILES): CCN1CCC(N(Cc2ccc(C)cc2)C(=O)Cc2ccc(Cl)cc2)CC1 [Example 47AKU-12, 2-(4-Chlorophenyl)-N-(4-methylbenzyl)-N-(1-ethylpiperidin-4-yl)acetamide]

- Emax [4]: 120%
- IC50 [5]: 10 nM
Structure (SMILES): COc1ccc(CC(=O)N(Cc2ccc(C)cc2)C2CCN(C3CCC3)CC2)cc1 [Example 47AKU-20, 2-(4-Methoxyphenyl)-N-(4-methylbenzyl)-N-(1-cyclobutylpiperidin-4-yl)acetamide]

Structure (SMILES): COc1ccc(CC(=O)N(Cc2ccc(C)cc2)C2CC3CCC(C2)N3C)cc1 (stereo not drawn) [Example 47AKU-21, 2-(4-Methoxyphenyl)-N-(4-methylbenzyl)-N-(8-methyl-8-aza-bicyclo[3.2.1]oct-3-yl)-acetamide]
- Emax (read-out: Percent Efficacy): 117%
- IC50 (pIC50, Table 3): 12.6 nM
